According to US20160178637A1, “DETECTION OF ALPHA, BETA-DICARBONYL COMPOUNDS WITH FLUOROGENIC PROBES” (THE UNIVERSITY OF WARWICK, priority 2012, published 2016):

How the values were obtained:
[1] = system: human leukaemia 60 cells (HL60); test: Fluorescence imaging of MG in isolated human leukaemia cells; type: cell-based; settings: HL60 cells 1×10^5 per ml, DAF-2 10 μM 40 min 37° C., washed, 30-120 min; excitation laser 457 nm, emission filter 470-500 nm
[2] = Incubation of DAF-2 with the NO donor DETA-nonoate, fluorescence; type: physicochemical; settings: DAF-2 50 μM + DETA-nonoate 10 μM, 10 mM sodium phosphate buffer pH 7.4, 37° C., one hour
Procedure: 4,5-Diaminofluorescein (DAF-2) was a fluorogenic probe developed for the detection of nitric oxide. 4,5-Diaminorhodamine (DAR), 8-(3,4-diaminophenyl)-2,6-bis(2-carboxyethyl)-4,4-difluoro-1,3,5,7-tetramethyl-4-bora-3a,4a-diaza-s-indacene (DAM BO-P″) and o-diaminocyanine are analogous o-diamino derivatizing agents based on different intense fluorophores. DAF-2 reacts with nitric oxide to form the fluorophore triazolofluorescein [6]. For example, incubation of DAF-2 (50 μM) with the NO donor (Z)-1-[2-(2-aminoethyl)-N-(2-ammonioethyl)amino]diazen-1-ium-1,2-diolate (DETA-nonoate), 10 μM, in 10 mM sodium phosphate buffer, pH 7.4 at 37° C., for one hour gave characteristic fluorescence of triazolofluorescein—excitation and emission maximum wavelengths of 491 and 515 nm, respectively. A further metabolite that reacts with DAF-2 is ascorbic acid which forms adducts DAF-2-DHA-5008 and DAF-2-DHA-518 which are fluorescent with excitation and emission wavelength maxima of 490 and 514 nm, respectively.

Row | Structure (SMILES) | fluorescence image of endogenous MG in cells [1] | emission maximum wavelength [2] [nm] | excitation maximum wavelength [2] [nm]
1 | Nc1cc2c(cc1N)C1(OC2=O)c2ccc(O)cc2Oc2cc(O)ccc21 [DAF-2, 4,5-diaminofluorescein] | fluorescence indicate of the DAF-2 MG adduct | – | –
2 | O=C1OC2(c3ccc(O)cc3Oc3cc(O)ccc32)c2ccc3[nH]nnc3c21 [triazolofluorescein] | – | 515 | 491
